Test results reported in patent publication US12465605B2, “Methods and materials for gender-dependent treatment of cardiovascular dysfunction” (Mayo Foundation for Medical Education and Research, priority 2019, dated 2025).

Key:
Format in all cases: cell-based
[1] = system: Osterix (BMP target gene); experiment: Osterix mRNA in aortic valve interstitial cells treated with sGC agonists; settings: for Osterix expression: 24 hours
Description: (§1) In vitro cell culture studies: Aortic valve interstitial cells were isolated using an outgrowth method, and were expanded in DMEM/F-10 medium with 10% FBS and studied in passages 2-10. Cells were treated for 24 hours under each experimental condition, at which point mRNA was harvested using lysis buffer. After mRNA isolation and reverse transcription, gene expression was measured using quantitative real-time RT-PCR and Taqman primers. Changes in gene expression were assessed by the ddCt method and expressed as fold-change normalized to control conditions.
In vitro studies were conducted in aortic valve interstitial cells to determine the effects of several sGC agonists on mRNA levels of Osterix, a BMP target gene. Cells were treated with nelociguat, vericiguat, lificiguat, or BAY41-8543, and Osterix mRNA levels were determined. Nelociguat and BAY41-8543 were used at concentrations ranging from 1 nM to 10 μM, while vericiguat and lificiguat were used at concentrations ranging from 1 nM to 1 μM.

[2] = system: LPA-induced BMP signaling; experiment: LPA-induced BMP signaling (Osterix mRNA) in aortic valve interstitial cells; settings: treatment with 18:0 lyso-PA alone
Description: as §1
Additional studies were conducted in aortic valve interstitial cells to examine the effects of ataciguat on LPA-induced BMP signaling and BMP target gene expression. Cells were treated with 18:0 lyso-PA, with or without ataciguat, and Osterix mRNA levels were determined.

[3] = target: T1, sGC (Mus musculus, UniProt O54865); experiment: sGC signaling (phospho-VASP239) in mouse aortic valve interstitial cells; settings: otherwise naïve mVICs, vs vehicle-treated cells
T1 construct: endogenous in cells; host or cells: primary mouse aortic valve interstitial cells (mVICs) from C57BL6/J mice
T1 sequence (O54865 1-620): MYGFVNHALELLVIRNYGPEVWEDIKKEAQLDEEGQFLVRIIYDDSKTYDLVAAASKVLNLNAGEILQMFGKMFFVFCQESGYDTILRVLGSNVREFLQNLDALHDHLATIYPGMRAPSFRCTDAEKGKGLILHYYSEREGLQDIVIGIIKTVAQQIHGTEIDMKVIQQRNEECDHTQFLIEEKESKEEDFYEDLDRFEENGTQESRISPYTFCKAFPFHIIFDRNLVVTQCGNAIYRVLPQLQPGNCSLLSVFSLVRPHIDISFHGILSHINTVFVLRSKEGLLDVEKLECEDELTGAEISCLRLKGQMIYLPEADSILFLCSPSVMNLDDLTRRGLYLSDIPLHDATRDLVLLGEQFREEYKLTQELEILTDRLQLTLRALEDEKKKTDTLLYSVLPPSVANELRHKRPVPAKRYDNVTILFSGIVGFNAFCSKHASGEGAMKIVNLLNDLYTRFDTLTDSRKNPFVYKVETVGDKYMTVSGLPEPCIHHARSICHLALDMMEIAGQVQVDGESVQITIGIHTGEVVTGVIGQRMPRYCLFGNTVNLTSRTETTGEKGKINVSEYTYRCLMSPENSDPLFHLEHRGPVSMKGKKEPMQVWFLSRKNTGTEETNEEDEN
T1 sequence (Q9ERL9 1-691 partner): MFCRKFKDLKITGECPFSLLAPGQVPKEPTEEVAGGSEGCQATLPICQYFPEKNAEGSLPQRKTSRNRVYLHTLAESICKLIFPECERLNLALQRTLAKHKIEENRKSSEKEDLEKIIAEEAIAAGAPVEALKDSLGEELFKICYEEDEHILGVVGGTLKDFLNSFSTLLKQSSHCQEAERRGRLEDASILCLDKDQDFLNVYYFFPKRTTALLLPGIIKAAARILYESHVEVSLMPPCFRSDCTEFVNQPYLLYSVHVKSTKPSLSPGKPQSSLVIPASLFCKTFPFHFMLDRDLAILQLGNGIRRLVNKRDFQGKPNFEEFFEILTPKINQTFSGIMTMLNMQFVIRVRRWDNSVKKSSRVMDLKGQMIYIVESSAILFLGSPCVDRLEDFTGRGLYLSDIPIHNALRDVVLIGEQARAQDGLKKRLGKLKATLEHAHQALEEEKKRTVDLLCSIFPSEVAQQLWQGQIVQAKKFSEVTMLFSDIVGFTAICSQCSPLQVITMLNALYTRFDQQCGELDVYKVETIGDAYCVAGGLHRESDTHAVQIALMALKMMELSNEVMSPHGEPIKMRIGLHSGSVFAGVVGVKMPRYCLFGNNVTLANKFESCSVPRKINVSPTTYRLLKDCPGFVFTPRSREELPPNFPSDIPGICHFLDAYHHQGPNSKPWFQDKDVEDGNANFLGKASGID
Description: To confirm that ataciguat effectively activated sGC in cells, mouse aortic valve interstitial cells (mVICs) were isolated from C57BL6/J mice treated with ataciguat or other sGC agonists as internal controls. […] To determine whether ataciguat could attenuate signaling cascades central to the initiation and progression of valve calcification in vitro, cells were treated with BMP2 with or without ataciguat. In these studies, ataciguat reduced phospho-SMAD1/5/8 signaling (e.g., canonical BMP signaling) as well as expression of osteogenic genes induced by BMP2 (e.g., osterix).

`OCc1ccc(-c2nn(Cc3ccccc3)c3ccccc23)o1` [lificiguat] was tested, and the Osterix expression ([1]; tested 1 nM to 1 μM) was “lose efficacy at higher concentrations”.
With `Nc1nc(-c2nn(Cc3ccccc3F)c3ncccc23)nc(N)c1N1CCOCC1` [BAY41-8543, 2-[1-[(2-fluorophenyl)methyl]-1H-pyrazolo[3,4-b]pyridin-3-yl]-5-(4-morpholinyl)-4,6-pyrimidinediamine] the Osterix expression ([1]; at 10 μM) was “highly efficacious” and the Osterix expression ([1]; tested 1 nM to 10 μM) was “dose-dependent reductions”.
For lysophosphatidic acid [18:0 lyso-PA], the “expression of Osterix” value [2] was “increased expression”.
With `COC(=O)Nc1c(N)nc(-c2nn(Cc3ccccc3F)c3ncc(F)cc23)nc1N` [vericiguat, methyl (4,6-diamino-2-(5-fluoro-1-(2-fluorobenzyl)-1H-pyrazolo[3,4-b]pyridin-3-yl)pyrimidin-5-yl)carbamate] the Osterix expression ([1]; tested 1 nM to 1 μM) was “only at the highest dose tested”.
In the case of `CCN(CC)/[N+]([O-])=N/O.CCNCC` [DEA-NONOATE], the “sGC-dependent signaling (phospho-VASP^239 levels)” value [3] is reported as “increased phospho-VASP^239 levels to a similar extent”.
`COC(=O)Nc1c(N)nc(-c2nn(Cc3ccccc3F)c3ncccc23)nc1N` [nelociguat, methyl (4,6-diamino-2-(1-(2-fluorobenzyl)-1H-pyrazolo[3,4-b]pyridin-3-yl)pyrimidin-5-yl)carbamate] was tested, and the “concentration that may be cytotoxic” value ([1]; suggested from loss of effect at the highest concentration) was ≥ 10 µM.
